Results: paper PMC4153739 (Biochemistry, 2012)
Non-standard residues stand in square brackets, D forms with d. Residues, ends and D or L forms follow the SMILES beside them. Gla = N[C@@H](CC(C(=O)O)C(=O)O)C(=O)O

Tested on: four NR2 NMDA receptor subtypes (NR2A, NR2B, NR2C, NR2D with NR1-2b)
Assay type: cell-based, rat

SMILES: CC(C)C[C@H](NC(=O)[C@H](CC(C(=O)O)C(=O)O)NC(=O)[C@H](CCCNC(=N)N)NC(=O)[C@H](C)NC(=O)[C@H](Cc1ccccc1)NC(=O)[C@H](CC(C(=O)O)C(=O)O)NC(=O)[C@H](CCC(N)=O)NC(=O)[C@H](CC(N)=O)NC(=O)[C@H](CC(C(=O)O)C(=O)O)NC(=O)[C@H](C)NC(=O)[C@H](CC(C)C)NC(=O)[C@H](CC(C(=O)O)C(=O)O)NC(=O)[C@H](CC(C(=O)O)C(=O)O)NC(=O)[C@H](CCC(=O)O)NC(=O)CN)C(=O)N[C@@H](C)C(=O)N[C@@H](CC(N)=O)C(N)=O [ConRl-B[desKAO;N8Q9]] (H-GE[Gla][Gla]LA[Gla]NQ[Gla]FAR[Gla]LAN-NH2; N-terminus assumed)
- activity on the four NR2 NMDA receptor subtypes, in words: little or no activity
